Where two headings read alike, the source gives them in different places.
What was measured:
[1] = target: Human cGAS amino acids 155-522 (Homo sapiens (Human), UniProt Q8N884); experiment: cGAS biochemical activity assay (ATP remaining, Kinase-Glo Max luminescence)
[2] = test system: cGAS/STING pathway in THP1 cells; experiment: THP1 cell-based cGAS/STING pathway activity assay (IRF-3-linked luciferase reporter)
Outline: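 THP1 cells carrying an IRF-3-driven luciferase reporter were read across a range of compound concentrations, and IC50 values were derived from these concentration responses; the assay upper limit was 100 μM.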

[3] = human cGAS 155-522, ATP remaining (Kinase-Glo Max), read-out: cGAS IC50

Sequence of Human cGAS amino acids 155-522 (Q8N884 157-522): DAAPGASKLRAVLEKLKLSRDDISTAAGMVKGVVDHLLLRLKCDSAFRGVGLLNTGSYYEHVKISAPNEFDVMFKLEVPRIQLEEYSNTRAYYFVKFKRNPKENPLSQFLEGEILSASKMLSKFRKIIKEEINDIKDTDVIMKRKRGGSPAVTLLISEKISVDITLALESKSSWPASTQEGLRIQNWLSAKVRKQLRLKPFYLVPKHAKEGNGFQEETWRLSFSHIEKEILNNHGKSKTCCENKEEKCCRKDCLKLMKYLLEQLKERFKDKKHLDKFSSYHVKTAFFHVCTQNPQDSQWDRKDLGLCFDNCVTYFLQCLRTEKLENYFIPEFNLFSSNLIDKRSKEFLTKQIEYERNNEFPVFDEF

| Compound | IC50 ([1]; cGAS IC50, human cGAS 155-522, ATP remaining (Kinase-Glo Max)) | IC50 ([2]; Homo sapiens, THP-1) | IC50 [1, 3] | IC50 ([2]; read-out: THP-1 IC50) |
| --- | --- | --- | --- | --- |
| Cc1[nH]c2c(-c3ccccc3)c(C(F)(F)F)nn2c(=O)c1-c1nc2c(OC(=O)N(C)C)cccc2o1 [Compound C1088, 2-(5-methyl-7-oxo-3-phenyl-2-(trifluoromethyl)-4,7-dihydropyrazolo[1,5-a]pyrimidin-6-yl)benzo[d]oxazol-4-yl dimethylcarbamate] | < 20 µM | 20 to 100 µM | – | – |
| Cc1[nH]c2c(-c3ccccc3)c(C(F)(F)F)nn2c(=O)c1-c1nc(CO)c(C2CCCCC2)o1 [Compound C1157, 6-(5-cyclohexyl-4-(hydroxymethyl)oxazol-2-yl)-5-methyl-3-phenyl-2-(trifluoromethyl)pyrazolo[1,5-a]pyrimidin-7(4H)-one] | – | < 20 µM | < 20 µM | – |
| COc1c(Cl)ccc2oc(-c3c(C)[nH]c4c(-c5ccccc5)c(C#N)nn4c3=O)nc12 [Compound C1206, 6-(5-chloro-4-methoxybenzo[d]oxazol-2-yl)-5-methyl-7-oxo-3-phenyl-4,7-dihydropyrazolo[1,5-a]pyrimidine-2-carbonitrile] | – | > 100 µM | < 20 µM | – |
| Cc1[nH]c2c(-c3ccccc3)c(C(F)(F)F)nn2c(=O)c1-c1nc2c(o1)CCCNC2=O [Compound C1059, 2-(5-methyl-7-oxo-3-phenyl-2-(trifluoromethyl)-4,7-dihydropyrazolo[1,5-a]pyrimidin-6-yl)-5,6,7,8-tetrahydro-4H-oxazolo[4,5-c]azepin-4-one] | – | > 100 µM | < 20 µM | – |
| COc1cc(N(C)C)cc2oc(-c3c(C)[nH]c4c(-c5ccccc5)c(C(F)(F)F)nn4c3=O)nc12 [Compound C1162, 6-(6-(dimethylamino)-4-methoxybenzo[d]oxazol-2-yl)-5-methyl-3-phenyl-2-(trifluoromethyl)pyrazolo[1,5-a]pyrimidin-7(4H)-one] | – | < 20 µM | < 20 µM | – |
| COc1cccc2oc(-c3c(COCC(F)F)[nH]c4c(-c5ccccc5)c(C(F)(F)F)nn4c3=O)nc12 [Compound C1232, 5-((2,2-difluoroethoxy)methyl)-6-(4-methoxybenzo[d]oxazol-2-yl)-3-phenyl-2-(trifluoromethyl)pyrazolo[1,5-a]pyrimidin-7(4H)-one] | – | 20 to 100 µM | < 20 µM | – |
| Cc1[nH]c2c(-c3ccccc3)c(C(F)(F)F)nn2c(=O)c1-c1nnc(C2CCCO2)o1 (centres unmarked) [Compound D1012, 5-methyl-3-phenyl-6-(5-(tetrahydrofuran-2-yl)-1,3,4-oxadiazol-2-yl)-2-(trifluoromethyl)pyrazolo[1,5-a]pyrimidin-7(4H)-one] | – | > 100 µM | < 20 µM | – |
| Cc1[nH]c2c(-c3ccccc3)c(C(F)(F)F)nn2c(=O)c1C(=O)Nc1cccc(S(C)(=O)=O)c1 [Compound A1084, 5-methyl-N-(3-(methylsulfonyl)phenyl)-7-oxo-3-phenyl-2-(trifluoromethyl)-4,7-dihydropyrazolo[1,5-a]pyrimidine-6-carboxamide] | – | 20 to 100 µM | < 20 µM | – |
| COc1cccc2oc(-c3c(CS(C)(=O)=O)[nH]c4c(-c5ccccc5)c(C(F)(F)F)nn4c3=O)nc12 [Compound C1138, 6-(4-methoxybenzo[d]oxazol-2-yl)-5-((methylsulfonyl)methyl)-3-phenyl-2-(trifluoromethyl)pyrazolo[1,5-a]pyrimidin-7(4H)-one] | – | > 100 µM | < 20 µM | – |
| Cc1[nH]c2c(-c3ccccc3)c(C(F)(F)F)nn2c(=O)c1C(=O)Nc1ccc(S(C)(=O)=O)nc1 [Compound A1113, 5-methyl-N-(6-(methylsulfonyl)pyridin-3-yl)-7-oxo-3-phenyl-2-(trifluoromethyl)-4,7-dihydropyrazolo[1,5-a]pyrimidine-6-carboxamide] | – | > 100 µM | 20 to 250 µM | – |
| COc1cccc2oc(-c3c(N4CCCC(C(=O)O)C4)[nH]c4c(-c5ccccc5)c(C(F)(F)F)nn4c3=O)nc12 (centres unmarked) [Compound C1257, 1-(6-(4-methoxybenzo[d]oxazol-2-yl)-7-oxo-3-phenyl-2-(trifluoromethyl)-4,7-dihydropyrazolo[1,5-a]pyrimidin-5-yl)piperidine-3-carboxylic acid] | – | > 100 µM | < 20 µM | – |
| COc1cccc2oc(-c3c(C(=O)NCC(=O)O)[nH]c4c(-c5ccccc5)c(C(F)(F)F)nn4c3=O)nc12 [Compound C1195, (6-(4-methoxybenzo[d]oxazol-2-yl)-7-oxo-3-phenyl-2-(trifluoromethyl)-4,7-dihydropyrazolo[1,5-a]pyrimidine-5-carbonyl)glycine] | – | > 100 µM | < 20 µM | – |
| CC(=O)N1CCOCC1c1nnc(-c2c(C)[nH]c3c(-c4ccccc4)c(C(F)(F)F)nn3c2=O)o1 (centres unmarked) [Compound D1050, 6-(5-(4-acetylmorpholin-3-yl)-1,3,4-oxadiazol-2-yl)-5-methyl-3-phenyl-2-(trifluoromethyl)pyrazolo[1,5-a]pyrimidin-7(4H)-one] | – | > 100 µM | 20 to 250 µM | – |
| CO[C@@H]1CCCC(c2nnc(-c3c(C)[nH]c4c(-c5ccccc5)c(C(F)(F)F)nn4c3=O)o2)C1 (some centres unmarked) [D1021 Iso-2] | – | – | < 20 µM | > 100 µM |
| COc1cccc(NC(=O)c2c(C)[nH]c3c(-c4ccccc4)c(C(F)(F)F)nn3c2=O)c1Cl [Compound A1135, N-(2-chloro-3-methoxyphenyl)-5-methyl-7-oxo-3-phenyl-2-(trifluoromethyl)-4,7-dihydropyrazolo[1,5-a]pyrimidine-6-carboxamide] | – | < 20 µM | < 20 µM | – |
| COc1cccc2sc(-c3c(C)[nH]c4c(-c5ccccc5)c(C(F)(F)F)nn4c3=O)nc12 [Compound C1070, 6-(4-methoxybenzo[d]thiazol-2-yl)-5-methyl-3-phenyl-2-(trifluoromethyl)pyrazolo[1,5-a]pyrimidin-7(4H)-one] | – | < 20 µM | < 20 µM | – |
| COc1cccc2oc(-c3c(C)[nH]c4c(-c5ccccc5)c(C#N)nn4c3=O)nc12 [Compound C1051, 6-(4-methoxybenzo[d]oxazol-2-yl)-5-methyl-7-oxo-3-phenyl-4,7-dihydropyrazolo[1,5-a]pyrimidine-2-carbonitrile] | – | 20 to 100 µM | < 20 µM | – |
| Cc1[nH]c2c(-c3ccccc3)c(C(F)(F)F)nn2c(=O)c1-c1nnc(C2(C(F)(F)F)CC2)o1 [Compound D1038, 5-methyl-3-phenyl-2-(trifluoromethyl)-6-(5-(1-(trifluoromethyl)cyclopropyl)-1,3,4-oxadiazol-2-yl)pyrazolo[1,5-a]pyrimidin-7(4H)-one] | – | < 20 µM | < 20 µM | – |
| CC(=O)Nc1cccc2nc(-c3c(C)[nH]c4c(-c5ccccc5)c(C(F)(F)F)nn4c3=O)[nH]c12 [Compound C1009, N-(2-(5-methyl-7-oxo-3-phenyl-2-(trifluoromethyl)-4,7-dihydropyrazolo[1,5-a]pyrimidin-6-yl)-1H-benzo[d]imidazol-7-yl)acetamide] | – | 20 to 100 µM | < 20 µM | – |
| COc1cccc2oc(-c3c(C)[nH]c4c(-c5ccc(F)cc5)c(C(F)(F)F)nn4c3=O)nc12 [Compound C1107, 3-(4-fluorophenyl)-6-(4-methoxybenzo[d]oxazol-2-yl)-5-methyl-2-(trifluoromethyl)pyrazolo[1,5-a]pyrimidin-7(4H)-one] | – | < 20 µM | > 250 µM | – |
| Cc1[nH]c2c(-c3ccccc3)c(C(F)(F)F)nn2c(=O)c1-c1nnc([C@H]2CCCOC2)o1 [Compound D1025, (S)-5-methyl-3-phenyl-6-(5-(tetrahydro-2H-pyran-3-yl)-1,3,4-oxadiazol-2-yl)-2-(trifluoromethyl)pyrazolo[1,5-a]pyrimidin-7(4H)-one] | – | 20 to 100 µM | < 20 µM | – |
| COc1ccnc(NC(=O)c2c(C)[nH]c3c(-c4ccccc4)c(C(F)(F)F)nn3c2=O)c1 [Compound A1063, N-(4-methoxypyridin-2-yl)-5-methyl-7-oxo-3-phenyl-2-(trifluoromethyl)-4,7-dihydropyrazolo[1,5-a]pyrimidine-6-carboxamide] | – | 20 to 100 µM | < 20 µM | – |
| COC1CCCc2oc(-c3c(C)[nH]c4c(-c5ccccc5)c(C(F)(F)F)nn4c3=O)nc21 (centres unmarked) [Compound C1048, 6-(4-methoxy-4,5,6,7-tetrahydrobenzo[d]oxazol-2-yl)-5-methyl-3-phenyl-2-(trifluoromethyl)pyrazolo[1,5-a]pyrimidin-7(4H)-one] | – | 20 to 100 µM | < 20 µM | – |
| Cc1[nH]c2c(-c3ccccc3)c(C(F)(F)F)nn2c(=O)c1C(=O)Nc1cc[nH]n1 [Compound A1076, 5-methyl-7-oxo-3-phenyl-N-(1H-pyrazol-3-yl)-2-(trifluoromethyl)-4,7-dihydropyrazolo[1,5-a]pyrimidine-6-carboxamide] | – | 20 to 100 µM | < 20 µM | – |
| Cc1[nH]c2c(-c3ccccc3)c(C(F)(F)F)nn2c(=O)c1C(=O)NCc1ccccc1 [Compound A1023, N-benzyl-5-methyl-7-oxo-3-phenyl-2-(trifluoromethyl)-4,7-dihydropyrazolo[1,5-a]pyrimidine-6-carboxamide] | – | 20 to 100 µM | 20 to 250 µM | – |

From patent US10738056B2 (Aduro BioTech, Inc., priority 2017, dated 2020)
